Experimental data reported in patent US6677460B1, “Aromatic carboxylic acid bicyclic sulfur compounds” (Idemitsu Kosan Company, Limited, priority 1993, dated 2004).

Key:
Format in all cases: in vivo
large crabgrass [1] = assay: Upland soil treatment test (8); settings: 300 g a.i./hectare, 20th day after spraying
Description: (§1) 90 Parts by weight of the above carrier and 10 parts by weight of each of Compounds obtained in the above Preparation Examples were uniformly pulverized and mixed to obtain herbicides. Further, for Herbicide Comparative Examples, comparative herbicides were prepared by uniformly pulverizing and mixing 90 parts by weight of the above carrier and 10 parts by weight of each of the following Compounds x, y, A, B and C.
(§2) (8) Biological Test (Upland Soil Treatment Test, Herbicide Examples 48-52 and Herbicide Comparative Examples 13 and 14)
(§3) Seeds of weeds such as large crabgrass, barnyard brass, green foxtail, cocklebur, velvetleaf and slender amarnth and seeds of corn, wheat and barley were sown in 1/5,000-are Wagner pots filled with upland soil, and covert with upland soil. Then, a predetermined amount of the herbicide prepared in the above (1) was suspended in water and uniformly sprayed onto the soil surface. Thereafter, the plant were grown in the greenhouse, and on the 20th day after the spraying treatment, the herbicide was evaluated for herbicidal efficacy.
(§4) The herbicidal efficacy and the phytotoxicity to crops are shown on the basis of the ratings described in (2) Foliar treatment test.

slender amaranth [2] = assay: Upland soil treatment test (8); settings: 300 g a.i./hectare, 20th day after spraying
Description: as §1, §2, §3, §4

green foxtail [3] = assay: Upland soil treatment test (8); settings: 300 g a.i./hectare, 20th day after spraying
Description: as §1, §2, §3, §4

barnyard grass [4] = assay: Upland soil treatment test (8); settings: 300 g a.i./hectare, 20th day after spraying
Description: as §1, §2, §3, §4

cocklebur [5] = assay: Upland soil treatment test (8); settings: 300 g a.i./hectare, 20th day after spraying
Description: as §1, §2, §3, §4

velvetleaf [6] = assay: Upland soil treatment test (8); settings: 300 g a.i./hectare, 20th day after spraying
Description: as §1, §2, §3, §4

large crabgrass [7] = assay: Foliar treatment test (7); settings: 300 g a.i./hectare, 20th day after spraying
Description: as §1
(§5) (7) Biological Test (Foliar Treatment Test, Herbicide Examples 43-47 and Comparative Examples 11 and 12)
as §3, with “barnyardgrass,” for “barnyard brass,”, “amaranth” for “amarnth”, “covered” for “covert”, “The seeds were grown in a greenhouse, and at the stage of 1 to 2 leaves of these plants,” for “Then,”, “leaf and stalk portions at a rate of 200 liter/10 ares.” for “the soil surface.”, “plants” for “plant”
(§6) The herbicidal efficacy and phytotoxcity to crops were shown on the basis of the following ratings.
(§7) The ratio of remaining plant weight to non-treated was determined on the basis of the ratio of remaining plant weight to non-treated=(remaining plant weight in treated plot/remaining plant weight in non-treated plot)×100. This is also applicable to biological tests hereinafter.

slender amaranth [8] = assay: Foliar treatment test (7); settings: 300 g a.i./hectare, 20th day after spraying
Description: as §1, §5
as §3, with “barnyardgrass,” for “barnyard brass,”, “amaranth” for “amarnth”, “covered” for “covert”, “The seeds were grown in a greenhouse, and at the stage of 1 to 2 leaves of these plants,” for “Then,”, “leaf and stalk portions at a rate of 200 liter/10 ares.” for “the soil surface.”, “plants” for “plant”
as §6, §7

green foxtail [9] = assay: Foliar treatment test (7); settings: 300 g a.i./hectare, 20th day after spraying
Description: as §1, §5
as §3, with “barnyardgrass,” for “barnyard brass,”, “amaranth” for “amarnth”, “covered” for “covert”, “The seeds were grown in a greenhouse, and at the stage of 1 to 2 leaves of these plants,” for “Then,”, “leaf and stalk portions at a rate of 200 liter/10 ares.” for “the soil surface.”, “plants” for “plant”
as §6, §7

barnyardgrass = assay: Foliar treatment test (7); settings: 300 g a.i./hectare, 20th day after spraying
Description: as §1, §5
as §3, with “barnyardgrass,” for “barnyard brass,”, “amaranth” for “amarnth”, “covered” for “covert”, “The seeds were grown in a greenhouse, and at the stage of 1 to 2 leaves of these plants,” for “Then,”, “leaf and stalk portions at a rate of 200 liter/10 ares.” for “the soil surface.”, “plants” for “plant”
as §6, §7

cocklebur [10] = assay: Foliar treatment test (7); settings: 300 g a.i./hectare, 20th day after spraying
Description: as §1, §5
as §3, with “barnyardgrass,” for “barnyard brass,”, “amaranth” for “amarnth”, “covered” for “covert”, “The seeds were grown in a greenhouse, and at the stage of 1 to 2 leaves of these plants,” for “Then,”, “leaf and stalk portions at a rate of 200 liter/10 ares.” for “the soil surface.”, “plants” for “plant”
as §6, §7

velvetleaf [11] = assay: Foliar treatment test (7); settings: 300 g a.i./hectare, 20th day after spraying
Description: as §1, §5
as §3, with “barnyardgrass,” for “barnyard brass,”, “amaranth” for “amarnth”, “covered” for “covert”, “The seeds were grown in a greenhouse, and at the stage of 1 to 2 leaves of these plants,” for “Then,”, “leaf and stalk portions at a rate of 200 liter/10 ares.” for “the soil surface.”, “plants” for “plant”
as §6, §7

large crabgrass [12] = assay: Foliar treatment test (2); settings: dosage 3 g a.i./are, 20th day after treatment
Description: as §1
(§8) (2) Biological Test (Foliar Treatment Test, Herbicide Examples 1 and 2 and Herbicide Comparative Examples 1 and 2)
(§9) Seeds of weeds such as large crabgrass, barnyard grass, green foxtail, cocklebur, velvetleaf and slender amaranth and seeds of corn, wheat and barley were sown in 1/5,000-are Wagner pots filled with upland soil, and covered with upland soil. The seeds were grown in a greenhouse, and at the stage of 1˜2 leaves of these plants, a predetermined amount of the herbicide prepared in the above (1) was suspended in water and uniformly sprayed onto leaf and stalk portions at a rate of 200 liter/10 are. Thereafter, the plants were grown in the greenhouse, and on 20th day after the treatment, the herbicide was evaluated for herbicidal efficacy.
as §6, §7

slender amaranth [13] = assay: Foliar treatment test (2); settings: dosage 3 g a.i./are, 20th day after treatment
Description: as §1, §8, §9, §6, §7

green foxtail [14] = assay: Foliar treatment test (2); settings: dosage 3 g a.i./are, 20th day after treatment
Description: as §1, §8, §9, §6, §7

barnyard grass [15] = assay: Foliar treatment test (2); settings: dosage 3 g a.i./are, 20th day after treatment
Description: as §1, §8, §9, §6, §7

cocklebur [16] = assay: Foliar treatment test (2); settings: dosage 3 g a.i./are, 20th day after treatment
Description: as §1, §8, §9, §6, §7

velvetleaf [17] = assay: Foliar treatment test (2); settings: dosage 3 g a.i./are, 20th day after treatment
Description: as §1, §8, §9, §6, §7

large crabgrass [18] = assay: Upland soil treatment test (3); settings: dosage 3 g a.i./are, 20th day after treatment
Description: as §1
(§10) (3) Biological Test (Upland Soil Treatment Test, Herbicide Examples 3 and 4 and Herbicide Comparative Examples 3 and 4)
as §3, with “barnyardgrass,” for “barnyard brass,”, “amaranth” for “amarnth”, “covered” for “covert”, “plants” for “plant”, “on” for “on the”, “the” for “the spraying”
as §4

slender amaranth [19] = assay: Upland soil treatment test (3); settings: dosage 3 g a.i./are, 20th day after treatment
Description: as §1, §10
as §3, with “barnyardgrass,” for “barnyard brass,”, “amaranth” for “amarnth”, “covered” for “covert”, “plants” for “plant”, “on” for “on the”, “the” for “the spraying”
as §4

green foxtail [20] = assay: Upland soil treatment test (3); settings: dosage 3 g a.i./are, 20th day after treatment
Description: as §1, §10
as §3, with “barnyardgrass,” for “barnyard brass,”, “amaranth” for “amarnth”, “covered” for “covert”, “plants” for “plant”, “on” for “on the”, “the” for “the spraying”
as §4

barnyard grass [21] = assay: Upland soil treatment test (3); settings: dosage 3 g a.i./are, 20th day after treatment
Description: as §1, §10
as §3, with “barnyardgrass,” for “barnyard brass,”, “amaranth” for “amarnth”, “covered” for “covert”, “plants” for “plant”, “on” for “on the”, “the” for “the spraying”
as §4

cocklebur [22] = assay: Upland soil treatment test (3); settings: dosage 3 g a.i./are, 20th day after treatment
Description: as §1, §10
as §3, with “barnyardgrass,” for “barnyard brass,”, “amaranth” for “amarnth”, “covered” for “covert”, “plants” for “plant”, “on” for “on the”, “the” for “the spraying”
as §4

velvetleaf [23] = assay: Upland soil treatment test (3); settings: dosage 3 g a.i./are, 20th day after treatment
Description: as §1, §10
as §3, with “barnyardgrass,” for “barnyard brass,”, “amaranth” for “amarnth”, “covered” for “covert”, “plants” for “plant”, “on” for “on the”, “the” for “the spraying”
as §4
Also: ranges in brackets are in %.

| Compound | Herbicidal Efficacy large crabgrass (large crabgrass [1]) | Herbicidal Efficacy slender amaranth (slender amaranth [2]) | Herbicidal Efficacy green foxtail (green foxtail [3]) | Herbicidal Efficacy barnyard grass (barnyard grass [4]) | Herbicidal Efficacy cocklebur (cocklebur [5]) | Herbicidal Efficacy velvetleaf (velvetleaf [6]) | Herbicidal Efficacy large crabgrass (large crabgrass [7]) | Herbicidal Efficacy slender amaranth (slender amaranth [8]) | Herbicidal Efficacy green foxtail (green foxtail [9]) | Herbicidal Efficacy barnyard grass (barnyardgrass) | Herbicidal Efficacy cocklebur (cocklebur [10]) | Herbicidal Efficacy velvetleaf (velvetleaf [11]) | further results |
| --- | --- | --- | --- | --- | --- | --- | --- | --- | --- | --- | --- | --- | --- |
| CCn1ncc(C(=O)c2cc(C)c3c(c2C)C=CCS3)c1O [Compound 47-1, 5,8-dimethyl-6-(1-ethyl-5-hydroxypyrazol-4-yl)carbonyl-3,4-dehydrothiochroman] | 0 (81-100) | 5 (0) | 0 (81-100) | 0 (81-100) | 0 (81-100) | 0 (81-100) | 0 (81-100) | 0 (81-100) | 0 (81-100) | 0 (81-100) | 5 (0) | 4 (1-20) |  |
| CCn1ncc(C(=O)c2cc(C)c3c(c2C)CCCS3)c1O [Compound 47-2, 5,8-dimethyl-6-(1-ethyl-5-hydroxypyrazol-4-yl)carbonylthiochroman] | 1 (61-80) | 5 (0) | 4 (1-20) | 5 (0) | 0 (81-100) | 5 (0) | 5 (0) | 5 (0) | 5 (0) | 2 (41-60) | 5 (0) | 5 (0) |  |
| CCn1ncc(C(=O)c2ccc(S(C)(=O)=O)cc2C)c1O [y, reference compound] | 3 (21-40) | 0 (81-100) | 2 (41-60) | 3 (21-40) | 0 (81-100) | 0 (81-100) | 0 (81-100) | 2 (41-60) | 0 (81-100) | 0 (81-100) | 3 (21-40) | 3 (21-40) | Herbicidal Efficacy large crabgrass (large crabgrass [12]): 0 (81-100); Herbicidal Efficacy slender amaranth (slender amaranth [13]): 2 (41-60); Herbicidal Efficacy green foxtail (green foxtail [14]): 0 (81-100); Herbicidal Efficacy barnyard grass (barnyard grass [15]): 0 (81-100); Herbicidal Efficacy cocklebur (cocklebur [16]): 3 (21-40); Herbicidal Efficacy velvetleaf (velvetleaf [17]): 3 (21-40); Herbicidal Efficacy large crabgrass (large crabgrass [18]): 3 (21-40); Herbicidal Efficacy slender amaranth (slender amaranth [19]): 0 (81-100); Herbicidal Efficacy green foxtail (green foxtail [20]): 2 (41-60); Herbicidal Efficacy barnyard grass (barnyard grass [21]): 2 (41-60); Herbicidal Efficacy cocklebur (cocklebur [22]): 0 (81-100); Herbicidal Efficacy velvetleaf (velvetleaf [23]): 0 (81-100) |
